# Assay results published in US20240025906A1 (NEURON23, INC., priority 2022, published 2024).
# Like-named read-outs stand apart in the source and are kept apart here.
# Assays:
# [1] = test system: JAK1/TYK2 pSTAT5 (Tyr694/699) in THP-1 cell line; experiment: IFNa-stimulated JAK1/TYK2 pSTAT5 (Tyr694/699) inhibition cellular assay, AlphaLISA; assay type: cell-based; conditions: Homo sapiens, THP-1 cells, AlphaLISA (Assay B)
# Method: Assay B: JAK1/TYK2 pSTAT5 (Tyr694/699) inhibition IC50 Cellular Assays
# To evaluate the inhibition effect of compounds disclosed herein against TYK2, an IFNa-stimulated JAE1/TYK2 pSTAT5 (Tyr694/699) quantification assay was conducted in the THP-1 cell line using an AlphaLISA detection method (PerkinElmer ALSU-PST5). Compounds in DMSO were serially diluted in a 96-well plate (10 mM starting concentration, 6-fold dilutions, 8 concentrations total) prior to dispensing of 8 nL into a 384-well plate using an I.DOT non-contact liquid handler (Dispendix). Cells were collected via centrifugation at 300 ref for 5 min and resuspended in Hanks' Balanced Salt Solution (Gibco 14175-079), and 6 μl containing 2e4 cells was dispensed into each well of the 384-well plate containing test compounds or DMSO alone (final concentrations: 10000, 1666.67, 277.78, 46.30, 7.72, 1.29, 0.21 and 0.04 nM). Cells were then incubated for 1 h at 37° C. with 5% CO2 prior to the addition of 2 μL IFNa (100 ng/mL; PBL Assay Science 11175-1). Following an additional 30 min incubation at 37° C. with 5% CO2, 2 μL of 5× lysis buffer was added to each well using the I.DOT […]. Plates were sealed and incubated at RT for 10 min on a plate shaker set to 400 RPM. Cell lysates were then frozen at −80° C. before subsequent detection of pSTAT5 by AlphaLISA. At the time of the detection assay, cell lysates were thawed for 5 min at room temperature and then on a plate shaker set to 400 RPM for an additional 10 min. Following the manufacturer recommended protocol (Perkin Elmer), 5 μL of acceptor bead master mix was added to each well; plates were then resealed and incubated for 2 min at RT on a plate shaker (400 rpm) prior to an additional 2-h incubation without agitation (protected from light). Donor bead master mix, 5 uL per well, was then added to each well before 2 min of shaking (RT, 400 rpm) and 2-h incubation (RT, no shaking, protected from light). Levels of pSTAT5 protein were then measured as fluorescent signal at 615 nm with an EnVision multimode plate reader (Perkin Elmer). IC50 values were calculated in Dotmatics using the four-parameter logistic curve regression model with bottom fixed to 0 and Hill Slope fixed to −1.
# TYK2 JH2 = biological target: T1, TYK2 JH2 (Homo sapiens, UniProt P29597); experiment: TYK2 JH2 binding assay (KINOMEscan KdELECT competitive binding); conditions: TYK2 JH2 domain
# T1 construct: purchased DiscoverX (KINOMEscan KdELECT service); host or cells: E. coli BL21-derived (T7 phage display) or HEK-293
# T1 sequence (P29597 589-875 limits assumed): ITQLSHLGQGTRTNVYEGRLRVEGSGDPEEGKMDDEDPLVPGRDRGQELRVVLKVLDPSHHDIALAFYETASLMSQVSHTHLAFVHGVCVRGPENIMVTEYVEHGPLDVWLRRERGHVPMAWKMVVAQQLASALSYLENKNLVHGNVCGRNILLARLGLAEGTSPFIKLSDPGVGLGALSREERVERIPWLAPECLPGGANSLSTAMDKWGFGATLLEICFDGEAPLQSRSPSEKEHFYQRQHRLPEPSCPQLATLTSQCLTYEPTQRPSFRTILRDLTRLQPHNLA
# Method: Assay A: TYK2 JH2 Binding Assay
# Competitive binding studies using TKY2 JH2-domain fragments were conducted by DiscoverX using the KINOMEscan (KdELECT) platform. Kinase-tagged T7 phage strains were prepared in an E. coli host derived from the BL21 strain. E. coli were grown to log-phase and infected with […] and incubated with shaking at 32° C. until lysis. The lysates were centrifuged and filtered to remove cell debris. The remaining kinases were produced in HEK-293 cells and subsequently tagged with DNA for qPCR detection. Streptavidin-coated magnetic beads were treated with biotinylated small molecule ligands for 30 minutes at room temperature to generate affinity resins for kinase assays. The liganded beads were blocked with excess biotin and washed with blocking buffer (SeaBlock (Pierce), 1% BSA, 0.05% Tween 20, 1 mM DTT) to remove unbound ligand and to reduce non-specific binding. Binding reactions were assembled by combining kinases, liganded affinity beads, and test compounds in 1× binding buffer (20% SeaBlock, 0.17×PBS, 0.05% Tween 20, 6 mM DTT). Test compounds were prepared as 111× stocks in 100% DMSO. Kds were determined using an 11-point 3-fold compound dilution series with three DMSO control points. All compounds for Kd measurements are distributed by acoustic transfer (non-contact dispensing) in 100% DMSO. The compounds were then diluted directly into the assays such that the final concentration of DMSO was 0.9%. All reactions performed in polypropylene 384-well plate. Each was a final volume of 0.02 ml. The assay plates were incubated at room temperature with shaking for 1 hour and the affinity beads were washed with wash buffer (1×PBS, 0.05% Tween 20). The beads were then re-suspended in elution buffer (1×PBS, 0.05% Tween 20, 0.5 μM non-biotinylated affinity ligand) and incubated at room temperature with shaking for 30 minutes. The kinase concentration in the eluates was measured by qPCR.
# [2] = IFNa-stimulated, read-out: Cellular THP1_IFNa-pSTATS_IC50
# [3] = KINOMEscan KdELECT (Assay A), read-out: Biochemical TYK2_JH2_Kd
# [4] = IFNa-stimulated, read-out: Cellular_THP1_IFNa-pSTATS_TYK2
# [5] = DiscoverX KINOMEscan KdELECT (Assay A), read-out: Biochemical TYK2_DiscoverX_JH2_BND_Kd
# [6] = IFNa-stimulated pSTAT5 (Tyr694/699), read-out: Cellular_THP1_IFNa-pSTATS_TYK2
"IC50 [1, 4]",SMILES,other results
≤ 500 nM,"CNc1ncc(C#Cc2ccc(C(C)(C)C#N)cc2)c2cc(NC(=O)C3CC3)ncc12 [Example 910, N-(5-((4-(2-cyanopropan-2-yl)phenyl)ethynyl)-8-(methylamino)-2,7-naphthyridin-3-yl)cyclopropanecarboxamide]",–
≤ 500 nM,"CNc1ncc(C#Cc2ccc(CC#N)cn2)c2cc(NC(=O)C3CC3)ncc12 [Example 911, N-(5-((5-(cyanomethyl)pyridin-2-yl)ethynyl)-8-(methylamino)-2,7-naphthyridin-3-yl)cyclopropanecarboxamide]",–
≤ 500 nM,"CNc1ncc(C#Cc2ccc(CN3CC(OC)C3)cn2)c2cc(NC(=O)C3CC3)ncc12 [Example 912, N-(5-((5-((3-methoxyazetidin-1-yl)methyl)pyridin-2-yl)ethynyl)-8-(methylamino)-2,7-naphthyridin-3-yl)cyclopropanecarboxamide]",–
≤ 500 nM,"CNc1ncc(C#Cc2ccc(Cn3nccn3)cn2)c2cc(NC(=O)C3CC3)ncc12 [Example 908, N-(5-((5-((2H-1,2,3-triazol-2-yl)methyl)pyridin-2-yl)ethynyl)-8-(methylamino)-2,7-naphthyridin-3-yl)cyclopropanecarboxamide]",–
≤ 500 nM,"CNc1ncc(C#Cc2ccc(Cn3ccnn3)cn2)c2cc(NC(=O)C3CC3)ncc12 [Example 909, N-(5-((5-((1H-1,2,3-triazol-1-yl)methyl)pyridin-2-yl)ethynyl)-8-(methylamino)-2,7-naphthyridin-3-yl)cyclopropanecarboxamide]",–

# The remaining lines, values behind:
SMILES,"IC50 [1, 4]",other results
C=C(c1ccccc1OC)c1cnc(NC)c2cnc(NC(=O)C3CC3)cc12 [Example 175],–,"IC50 [1, 2]: > 500 nM; Kd (TYK2 JH2; [3]): 100 to 1000 nM"
"CNc1ncc(-c2nc3ccc(N4CCO[C@H](C)C4)cn3n2)c2cc(NC(=O)[C@H]3C[C@H]3C)ncc12 [Example 547, (1S,2R)-2-methyl-N-(8-(methylamino)-5-(6-((R)-2-methylmorpholino)-[1,2,4]triazolo[1,5-a]pyridin-2-yl)-2,7-naphthyridin-3-yl)cyclopropane-1-carboxamide]",≤ 500 nM,Kd (TYK2 JH2; [5]): ≤ 100 nM
"CNc1ncc(-c2nc3cc(OC)ccc3o2)c2cc(NC(=O)[C@H]3C[C@H]3F)ncc12 [Example 387, (1R,2R)-2-fluoro-N-(5-(5-methoxybenzo[d]oxazol-2-y1)-8-(methylamino)-2,7-naphthyridin-3-yl)cyclopropane-1-carboxamide]",≤ 500 nM,Kd (TYK2 JH2; [5]): ≤ 100 nM
"CNc1ncc(-c2nc3cc(N4CCO[C@@H](C)C4)ccc3o2)c2cc(NC(=O)[C@@H]3C[C@@H]3C(F)F)ncc12 (racemic) [Example 413, 2-(difluoromethyl)-N-(8-(methylamino)-5-(5-((S)-2-methylmorpholino)benzo[d]oxazol-2-yl)-2,7-naphthyridin-3-yl)cyclopropane-1-carboxamide]",≤ 500 nM,Kd (TYK2 JH2; [5]): ≤ 100 nM
"CNc1ncc(-c2conc2C)c2cc(NC(=O)C3CC3)ncc12 [Example 36, N-(8-(methylamino)-5-(3-methylisoxazol-4-yl)-2,7-naphthyridin-3-yl)cyclopropanecarboxamide]",–,"IC50 [1, 2]: > 500 nM; Kd (TYK2 JH2; [3]): ≤ 100 nM"
"CNc1ncc(/C=C/c2ccccc2OC)c2cc(NC(=O)C3CC3)ncc12 [Example 174, (E)-N-(5-(2-methoxystyryl)-8-(methylamino)-2,7-naphthyridin-3-yl)cyclopropanecarboxamide]",–,"IC50 [1, 2]: ≤ 500 nM"
"CNc1ncc(C#Cc2nccc3cc(F)ccc23)c2cc(NC(=O)C3CC3)ncc12 [Example 1135, N-(5-((6-fluoroisoquinolin-1-yl)ethynyl)-8-(methylamino)-2,7-naphthyridin-3-yl)cyclopropanecarboxamide]",–,"IC50 [1, 6]: ≤ 500 nM"
"CNc1ncc(C#Cc2ccc(CN3CCO[C@@H](C)C3)cc2)c2cc(NC(=O)C3CC3)ncc12 [Example 814, (S)—N-(8-(methylamino)-5-((4-((2-methylmorpholino)methyl)phenyl)ethynyl)-2,7-naphthyridin-3-yl)cyclopropanecarboxamide]",≤ 500 nM,–
"CNc1ncc(C#Cc2cn(C(F)F)c(C)n2)c2cc(NC(=O)[C@H]3C[C@H]3C)ncc12 [Example 1139, (1S,2R)—N-(5-((1-(difluoromethyl)-2-methyl-1H-imidazol-4-yl)ethynyl)-8-(methylamino)-2,7-naphthyridin-3-yl)-2-methylcyclopropanecarboxamide]",–,"IC50 [1, 6]: ≤ 500 nM"
"CNc1ncc(C#Cc2ccc(C(C)(C)O)cc2)c2cc(NC(=O)C3CC3)ncc12 [Example 802, N-(5-((4-(2-hydroxypropan-2-yl)phenyl)ethynyl)-8-(methylamino)-2,7-naphthyridin-3-yl)cyclopropanecarboxamide]",≤ 500 nM,–
"CNc1ncc(-c2nc3cnc(C(F)F)cc3o2)c2cc(NC(=O)C3CC3)ncc12 [Example 461, N-(5-(6-(difluoromethyl)oxazolo[4,5-c]pyridin-2-yl)-8-(methylamino)-2,7-naphthyridin-3-yl)cyclopropanecarboxamide]",≤ 500 nM,–
"CCNc1ncc(-c2nc3cc(N4CC5CNCC(C4)O5)ccc3o2)c2cc(NC(=O)C3CC3)ncc12 [Example 466, N-(5-(5-(9-oxa-3,7-diazabicyclo[3.3.1]nonan-3-yl)benzo[d]oxazol-2-yl)-8-(ethylamino)-2,7-naphthyridin-3-yl)cyclopropanecarboxamide]",≤ 500 nM,–
"CNc1ncc(-c2nc3cc(N4CCO[C@@H](C)C4)ccc3o2)c2cc(NC(=O)[C@H]3C[C@H]3C)nnc12 [Example 891, (1S,2R)-2-methyl-N-(8-(methylamino)-5-(5-((S)-2-methylmorpholino)benzo[d]oxazol-2-yl)pyrido[3,4-c]pyridazin-3-yl)cyclopropane-1-carboxamide]",≤ 500 nM,–
"CNc1ncc(C#Cc2cccc3c2CNCC3)c2cc(NC(=O)C3CC3)ncc12 [Example 1137, N-(8-(methylamino)-5-((1,2,3,4-tetrahydroisoquinolin-8-yl)ethynyl)-2,7-naphthyridin-3-yl)cyclopropanecarboxamide]",–,"IC50 [1, 6]: > 500 nM"
"CNc1ncc(-c2cc3ccc(N4CCO[C@@H](C)C4)cn3n2)c2cc(NC(=O)C3CC3)ncc12 [Example 797, (S)—N-(8-(methylamino)-5-(6-(2-methylmorpholino)pyrazolo[1,5-a]pyridin-2-yl)-2,7-naphthyridin-3-yl)cyclopropanecarboxamide]",≤ 500 nM,–
"CNc1ncc(C#Cc2ccc(CN3CC(F)(F)C3)cn2)c2cc(NC(=O)C3CC3)ncc12 [Example 906, N-(5-((5-((3,3-difluoroazetidin-1-yl)methyl)pyridin-2-yl)ethynyl)-8-(methylamino)-2,7-naphthyridin-3-yl)cyclopropanecarboxamide]",≤ 500 nM,–
